The source of these data is US11491245B2, “Gadolinium chelate compounds for use in magnetic resonance imaging” (BAYER PHARMA AKTIENGESELLSCHAFT, priority 2015, dated 2022).

The nature of the data set: Chemical stability (autoclaving at 121° C.). The following applies: 5 mmol Gd/L in 10 mM Tris-HCl buffer, pH 7.4, 121° C. for 20 min. The format is physicochemical.

On to `CC(C(=O)NCC(=O)NCC(CNC(=O)CNC(=O)C(C)N1CCN(CC(=O)[O-])CCN(CC(=O)[O-])CCN(CC(=O)[O-])CC1)(CNC(=O)CNC(=O)C(C)N1CCN(CC(=O)[O-])CCN(CC(=O)[O-])CCN(CC(=O)[O-])CC1)CNC(=O)CNC(=O)C(C)N1CCN(CC(=O)[O-])CCN(CC(=O)[O-])CCN(CC(=O)[O-])CC1)N1CCN(CC(=O)[O-])CCN(CC(=O)[O-])CCN(CC(=O)[O-])CC1.[Gd+3].[Gd+3].[Gd+3].[Gd+3]` (stereo not shown) [Example 3, Tetragadolinium [4,10-bis(carboxylatomethyl)-7-{3,6,12,15-tetraoxo-16-[4,7,10-tris-(carboxylatomethyl)-1,4,7,10-tetraazacyclododecan-1-yl]-9,9-bis({[({2-[4,7,10-tris-(carboxylatomethyl)-1,4,7,10-tetraazacyclododecan-1-yl]propanoyl}amino)acetyl]-amino}methyl)-4,7,11,14-tetraazaheptadecan-2-yl}-1,4,7,10-tetraazacyclododecan-1-yl]acetate], for which the “appearance of the solution after autoclaving” value was “still clear and colorless”.
